# Measurements reported in the supplement of paper PMC6045584.
# ± gives the standard deviation of the averaged measurements.
# Assays:
# [1] = compound: T1, Nc1nc2[nH]cnc2c(=S)[nH]1 [TIOGUANINE]; experiment: area under dose-response curve of surviving fraction (unscaled, Aref=0) (surviving fraction x log10(nM)); higher = more resistant; settings: exposure time: 5 days; dose range 0.5-1000 nM
# Method in brief: (§1)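 Each tumour cell line was screened three times in 384-well plates, receiving eight inhibitor concentrations from 0.5 to 1000 nM for five days. CellTiter-Glo luminescence gave viability, normalised to DMSO-only wells. Using the drc R package, surviving fractions were fitted with 3-parameter logistic dose-response curves, and the unscaled activity area over log10 dose (Aref = 0) was taken as the area under the curve.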
# [2] = compound: T2, CC[C@@H]1C(=O)N(C)c2cnc(Nc3ccc(C(=O)NC4CCN(C)CC4)cc3OC)nc2N1C1CCCC1 [BI-2536]; experiment: as above; settings: exposure time: 5 days; dose range 0.5-1000 nM
# Method in brief: as §1
# [3] = compound: Cn1cc(C2=Nc3cc(NC(=O)C(N)C4CCCCC4)cc4c3C2=CNNC4=O)cn1; experiment: as above; settings: exposure time: 5 days; dose range 0.5-1000 nM
# Method in brief: as §1
# [4] = compound: T3, CNC(=O)c1ccc(N2C(=S)N(c3ccc(C#N)c(C(F)(F)F)c3)C(=O)C2(C)C)cc1F [MDV3100]; experiment: as above; settings: exposure time: 5 days; dose range 0.5-1000 nM
# Method in brief: as §1
# [5] = compound: T4, CCCCCCCCCCCCCCCC(=O)Nc1ccn([C@@H]2O[C@H](CO)[C@@H](O)[C@@H]2C#N)c(=O)n1 [SAPACITABINE]; experiment: as above; settings: exposure time: 5 days; dose range 0.5-1000 nM
# Method in brief: as §1
# [6] = compound: T5, CN(C)C/C=C/C(=O)Nc1cc2c(Nc3ccc(F)c(Cl)c3)ncnc2cc1O[C@H]1CCOC1 [AFATINIB]; experiment: as above; settings: exposure time: 5 days; dose range 0.5-1000 nM
# Method in brief: as §1
# [7] = compound: T6, C=CC(=O)Nc1cc2c(Nc3ccc(F)c(Cl)c3)ncnc2cc1OCCCN1CCOCC1 [CANERTINIB]; experiment: as above; settings: exposure time: 5 days; dose range 0.5-1000 nM
# Method in brief: as §1
# [8] = compound: T7, CC1(C)CC(=O)c2c(C(F)(F)F)nn(-c3ccc(C(N)=O)c(N[C@H]4CC[C@H](OC(=O)CN)CC4)c3)c2C1 [SNX-5422]; experiment: as above; settings: exposure time: 5 days; dose range 0.5-1000 nM
# Method in brief: as §1
# [9] = compound: T1, TIOGUANINE; experiment: surviving fraction relative to DMSO-only wells; higher = less growth inhibition; settings: exposure time: 5 days
# Method in brief: (§2)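 Each tumour cell line was screened three times, and only lines with replicate Pearson r >0.7 and median Z' >0.3 were kept. Cells in log phase were seeded at 250–500 per well in 384-well plates, left 24 hours, then exposed continuously for five days to inhibitors at 0.5, 1, 5, 10, 50, 100, 500 and 1000 nM. Viability was read as CellTiter-Glo luminescence, with surviving fraction normalised to the median of DMSO-only wells.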
# [10] = compound: T2, BI-2536; experiment: as above; settings: exposure time: 5 days
# Method in brief: as §2
# [11] = compound: Cn1cc(C2=Nc3cc(NC(=O)C(N)C4CCCCC4)cc4c3C2=CNNC4=O)cn1; experiment: as above; settings: exposure time: 5 days
# Method in brief: as §2
# [12] = compound: T3, MDV3100; experiment: as above; settings: exposure time: 5 days
# Method in brief: as §2
# [13] = compound: T4, SAPACITABINE; experiment: as above; settings: exposure time: 5 days
# Method in brief: as §2
# [14] = compound: T5, AFATINIB; experiment: as above; settings: exposure time: 5 days
# Method in brief: as §2
# [15] = compound: T6, CANERTINIB; experiment: as above; settings: exposure time: 5 days
# Method in brief: as §2
# [16] = compound: T7, SNX-5422; experiment: as above; settings: exposure time: 5 days
# Method in brief: as §2
test system,measurement,setting,value
SG32 HEADNECK,area under dose-response curve,[1],3.59
same,area under dose-response curve,[2],1.44
same,area under dose-response curve,[3],2.65
same,area under dose-response curve,[4],3.4
same,area under dose-response curve,[5],1.91
same,area under dose-response curve,[6],2.94
same,area under dose-response curve,[7],2.35
same,area under dose-response curve,[8],1.98
same,surviving fraction,[9]; 0.5 nM,0.916 ± 0.077
same,surviving fraction,[9]; 1 nM,1.04 ± 0.044
same,surviving fraction,[9]; 5 nM,1.18 ± 0.22
same,surviving fraction,[9]; 10 nM,1.2 ± 0.074
same,surviving fraction,[9]; 50 nM,1.2 ± 0.15
same,surviving fraction,[9]; 100 nM,0.881 ± 0.05
same,surviving fraction,[9]; 500 nM,0.962 ± 0.22
same,surviving fraction,[9]; 1000 nM,1.17 ± 0.057
same,surviving fraction,[10]; 0.5 nM,1.22 ± 0.12
same,surviving fraction,[10]; 1 nM,1.07 ± 0.18
same,surviving fraction,[10]; 5 nM,0.32 ± 0.017
same,surviving fraction,[10]; 10 nM,0.296 ± 0.022
same,surviving fraction,[10]; 50 nM,0.292 ± 0.0097
same,surviving fraction,[10]; 100 nM,0.294 ± 0.043
same,surviving fraction,[10]; 500 nM,0.204 ± 0.014
same,surviving fraction,[10]; 1000 nM,0.16 ± 0.02
same,surviving fraction,[11]; 0.5 nM,1.12 ± 0.29
same,surviving fraction,[11]; 1 nM,1.13 ± 0.1
same,surviving fraction,[11]; 5 nM,1.14 ± 0.091
same,surviving fraction,[11]; 10 nM,1.12 ± 0.14
same,surviving fraction,[11]; 50 nM,0.881 ± 0.065
same,surviving fraction,[11]; 100 nM,0.774 ± 0.19
same,surviving fraction,[11]; 500 nM,0.273 ± 0.099
same,surviving fraction,[11]; 1000 nM,0.222 ± 0.087
same,surviving fraction,[12]; 0.5 nM,1.21 ± 0.56
same,surviving fraction,[12]; 1 nM,0.976 ± 0.13
same,surviving fraction,[12]; 5 nM,0.988 ± 0.033
same,surviving fraction,[12]; 10 nM,0.794 ± 0.073
same,surviving fraction,[12]; 50 nM,1.16 ± 0.17
same,surviving fraction,[12]; 100 nM,1 ± 0.3
same,surviving fraction,[12]; 500 nM,1.01 ± 0.044
same,surviving fraction,[12]; 1000 nM,1.09 ± 0.26
same,surviving fraction,[13]; 0.5 nM,0.715 ± 0.068
same,surviving fraction,[13]; 1 nM,0.614 ± 0.17
same,surviving fraction,[13]; 5 nM,0.907 ± 0.12
same,surviving fraction,[13]; 10 nM,0.429 ± 0.12
same,surviving fraction,[13]; 50 nM,0.707 ± 0.11
same,surviving fraction,[13]; 100 nM,0.487 ± 0.065
same,surviving fraction,[13]; 500 nM,0.447 ± 0.082
same,surviving fraction,[13]; 1000 nM,0.289 ± 0.078
same,surviving fraction,[14]; 0.5 nM,1.13 ± 0.14
same,surviving fraction,[14]; 1 nM,1.09 ± 0.082
same,surviving fraction,[14]; 5 nM,1.13 ± 0.2
same,surviving fraction,[14]; 10 nM,1.01 ± 0.078
same,surviving fraction,[14]; 50 nM,0.895 ± 0.11
same,surviving fraction,[14]; 100 nM,0.864 ± 0.07
same,surviving fraction,[14]; 500 nM,0.637 ± 0.081
same,surviving fraction,[14]; 1000 nM,0.348 ± 0.09
same,surviving fraction,[15]; 0.5 nM,0.647 ± 0.084
same,surviving fraction,[15]; 1 nM,0.826 ± 0.11
same,surviving fraction,[15]; 5 nM,0.778 ± 0.12
same,surviving fraction,[15]; 10 nM,0.839 ± 0.094
same,surviving fraction,[15]; 50 nM,0.786 ± 0.15
same,surviving fraction,[15]; 100 nM,0.703 ± 0.14
same,surviving fraction,[15]; 500 nM,0.577 ± 0.09
same,surviving fraction,[15]; 1000 nM,0.501 ± 0.031
same,surviving fraction,[16]; 0.5 nM,1.35 ± 0.39
same,surviving fraction,[16]; 1 nM,1.17 ± 0.21
same,surviving fraction,[16]; 5 nM,1.08 ± 0.18
same,surviving fraction,[16]; 10 nM,1.29 ± 0.14
same,surviving fraction,[16]; 50 nM,0.257 ± 0.035
same,surviving fraction,[16]; 100 nM,0.14 ± 0.011
same,surviving fraction,[16]; 500 nM,0.0353 ± 0.0084
same,surviving fraction,[16]; 1000 nM,0.0353 ± 0.004
